Assay results as given in BindingDB's records for doi:10.1021/jm990281p (Parke-Davis Pharmaceutical Research, 2000).

Key:
[1] = biological target: T1, Dimer of Gag-Pol polyprotein [489-587] (Human immunodeficiency virus 1, UniProt P12497); experiment: Protease Inhibition Assay
T1 construct: 489-587
Method: (§1) Sensitivity of HIV-1 protease activity to protease inhibitors was determined by a peptide substrate cleavage assay. Protease products were analyzed on a reverse-phase high-pressure liquid chromatograph.

[2] = biological target: T2, Gag-Pol polyprotein [489-587] (Human immunodeficiency virus 1, UniProt P04585); experiment: Protease Inhibition Assay
T2 construct: 489-587
Method: as §1

[3] = biological target: T2, Gag-Pol polyprotein [489-587]

Row | Compound | IC50 ([1]; pH 6.2, 37 °C) [nM] | Ki ([1]; pH 6.2, 37 °C) [nM] | IC50 [2] [nM] | Ki [3] [nM] | Ki [1] [nM]
1 | Cc1cc(SC2C(=O)CC(CCc3ccc(O)cc3)(C(C)C)OC2=O)c(C(C)(C)C)cc1N (configuration not stated) | 2.7 | 0.67 | 2.7 | 0.67 | 
2 | Cc1cc(SC2C(=O)CC(CCc3ccc(O)cc3)(C(C)C)OC2=O)c(C(C)(C)C)cc1NS(=O)(=O)c1cccc(C#N)c1 (configuration not stated) |  | 0.21 |  | 0.21 | 
3 | Cc1cc(SC2C(=O)CC(CCc3ccccc3)(C(C)C)OC2=O)c(C(C)(C)C)cc1NS(C)(=O)=O (configuration not stated) |  | 0.83 |  | 0.83 | 
4 | Cc1cc(SC2C(=O)CC(CCc3ccccc3)(C(C)C)OC2=O)c(C(C)(C)C)cc1O (configuration not stated) |  |  |  | 1.1 | 
5 | Cc1cc(SC2C(=O)CC(CCc3ccccc3)(C(C)C)OC2=O)c(C(C)(C)C)cc1OS(=O)(=O)c1ccc(C#N)cc1 (configuration not stated) |  |  |  | 0.7 | 0.7
6 | Cc1cc(SC2C(=O)C[C@@](CCc3ccc(O)cc3)(C(C)C)OC2=O)c(C(C)(C)C)cc1OS(C)(=O)=O (some centres not stated) |  |  | 2.2 | 0.03 | 0.03
7 | Cc1cc(SC2C(=O)C[C@@](CCc3ccc(O)cc3)(C(C)C)OC2=O)c(C(C)(C)C)cc1N (stereo partly drawn) [(6S)-3-[(4-amino-2-tert-butyl-5-methylphenyl)sulfanyl]-4-hydroxy-6-[2-(4-hydroxyphenyl)ethyl]-6-(propan-2-yl)-5,6-dihydro-2H-pyran-2-one] |  |  |  | 13 | 0.07
8 | Cc1cc(SC2C(=O)CC(CCc3ccccc3)(C(C)C)OC2=O)c(C(C)(C)C)cc1NS(=O)(=O)c1cccc(C#N)c1 (configuration not stated) [N-(5-tert-butyl-4-{[4-hydroxy-2-oxo-6-(2-phenylethyl)-6-(propan-2-yl)-5,6-dihydro-2H-pyran-3-yl]sulfanyl}-2-methylphenyl)-3-cyanobenzene-1-sulfonamide] |  | 1.4 |  | 1.4 | 
9 | Cc1cc(SC2C(=O)CC(CCc3ccccc3)(C(C)C)OC2=O)c(C(C)(C)C)cc1NS(=O)(=O)c1ccc(C(F)(F)F)cc1 (configuration not stated) [N-(5-tert-butyl-4-{[4-hydroxy-2-oxo-6-(2-phenylethyl)-6-(propan-2-yl)-5,6-dihydro-2H-pyran-3-yl]sulfanyl}-2-methylphenyl)-4-(trifluoromethyl)benzene-1-sulfonamide] |  | 27 |  | 27 | 
10 | Cc1cc(SC2C(=O)C[C@@](CCc3ccccc3)(C(C)C)OC2=O)c(C(C)(C)C)cc1NS(=O)(=O)c1ccc(C#N)cc1 (stereo partly drawn) [N-(5-tert-butyl-4-{[(6S)-4-hydroxy-2-oxo-6-(2-phenylethyl)-6-(propan-2-yl)-5,6-dihydro-2H-pyran-3-yl]sulfanyl}-2-methylphenyl)-4-cyanobenzene-1-sulfonamide] |  |  | 9.1 | 0.2 | 0.2
11 | Cc1cc(SC2C(=O)C[C@@](CCc3ccccc3)(C(C)C)OC2=O)c(C(C)(C)C)cc1NS(=O)(=O)c1ccc(C(F)(F)F)cn1 (stereo partly drawn) [N-(5-tert-butyl-4-{[(6S)-4-hydroxy-2-oxo-6-(2-phenylethyl)-6-(propan-2-yl)-5,6-dihydro-2H-pyran-3-yl]sulfanyl}-2-methylphenyl)-5-(trifluoromethyl)pyridine-2-sulfonamide] |  |  |  | 6.4 | 0.31
12 | Cc1cc(SC2C(=O)C[C@@](CCc3ccc(O)cc3)(C(C)C)OC2=O)c(C(C)(C)C)cc1NS(=O)(=O)c1ccc(C(F)(F)F)cn1 (stereo partly drawn) [N-(5-tert-butyl-4-{[(6S)-4-hydroxy-6-[2-(4-hydroxyphenyl)ethyl]-2-oxo-6-(propan-2-yl)-5,6-dihydro-2H-pyran-3-yl]sulfanyl}-2-methylphenyl)-5-(trifluoromethyl)pyridine-2-sulfonamide] |  |  |  | 0.39 | 0.39
13 | Cc1cc(SC2C(=O)CC(CCc3ccc(O)cc3)(C(C)C)OC2=O)c(C(C)(C)C)cc1NS(=O)(=O)c1ccc(C#N)cc1 (configuration not stated) [N-[5-tert-butyl-4-({4-hydroxy-6-[2-(4-hydroxyphenyl)ethyl]-2-oxo-6-(propan-2-yl)-5,6-dihydro-2H-pyran-3-yl}sulfanyl)-2-methylphenyl]-4-cyanobenzene-1-sulfonamide] | 2.2 | 0.41 | 2.2 | 0.41 | 
14 | Cc1cc(SC2C(=O)CC(CCc3ccc(O)cc3)(C(C)C)OC2=O)c(C(C)(C)C)cc1NS(=O)(=O)c1ccccc1 (configuration not stated) [N-[5-tert-butyl-4-({4-hydroxy-6-[2-(4-hydroxyphenyl)ethyl]-2-oxo-6-(propan-2-yl)-5,6-dihydro-2H-pyran-3-yl}sulfanyl)-2-methylphenyl]benzenesulfonamide] | 1.8 | 0.53 | 1.8 | 0.53 | 
15 | Cc1cc(SC2C(=O)CC(CCc3ccc(O)cc3)(C3CC3)OC2=O)c(C(C)(C)C)cc1NS(=O)(=O)c1ccccc1 (configuration not stated) [N-[5-tert-butyl-4-({6-cyclopropyl-4-hydroxy-6-[2-(4-hydroxyphenyl)ethyl]-2-oxo-5,6-dihydro-2H-pyran-3-yl}sulfanyl)-2-methylphenyl]benzenesulfonamide] | 3.6 |  | 3.6 |  | 
